Source: patent US9346817B2, “Dioxino- and oxazin-[2,3-D]pyrimidine PI3K inhibitor compounds and methods of use” (Genentech, Inc., priority 2012, dated 2016)

Assays:
[1] = tested on: MDA-MB-361.1 cells (breast, PI3K mutation); test: In vitro cell proliferation assay (CellTiter-Glo), MDA-MB-361.1; format: cell-based; conditions: Cell line: MDA-MB-361.1; Tissue type: breast; Mutation Status: PI3K
Experimental: (§1) The cytotoxic or cytostatic activity of Formula I exemplary compounds was measured by: establishing a proliferating mammalian tumor cell line in a cell culture medium, adding a Formula I compound, culturing the cells for a period from about 6 hours to about 5 days; and measuring cell viability (Example 902). Cell-based in vitro assays were used to measure viability, i.e. proliferation (IC50), cytotoxicity (EC50), and induction of apoptosis (caspase activation).
(§2) The in vitro potency of Formula I exemplary compounds was measured by the cell proliferation assay, CellTiter-Glo® Luminescent Cell Viability Assay, commercially available from Promega Corp., Madison, Wis. (Example 902). This homogeneous assay method is based on the recombinant expression of Coleoptera luciferase (U.S. Pat. No. 5,583,024; U.S. Pat. No. 5,674,713; U.S. Pat. No. 5,700,670) and determines the number of viable cells in culture based on quantitation of the ATP present, an indicator of metabolically active cells (Crouch et al (1993) J. Immunol. Meth. 160:81-88; U.S. Pat. No. 6,602,677). The CellTiter-Glo® Assay was conducted in 96 or 384 well format, making it amenable to automated high-throughput screening (HTS) (Cree et al (1995) AntiCancer Drugs 6:398-404). The homogeneous assay procedure involves adding the single reagent (CellTiter-Glo® Reagent) directly to cells cultured in serum-supplemented medium. Cell washing, removal of medium and multiple pipetting steps are not required. The system detects as few as 15 cells/well in a 384-well format in 10 minutes after adding reagent and mixing.
(§3) The homogeneous “add-mix-measure” format results in cell lysis and generation of a luminescent signal proportional to the amount of ATP present. The amount of ATP is directly proportional to the number of cells present in culture. The CellTiter-Glo® Assay generates a “glow-type” luminescent signal, produced by the luciferase reaction, which has a half-life generally greater than five hours, depending on cell type and medium used. Viable cells are reflected in relative luminescence units (RLU). The substrate, Beetle Luciferin, is oxidatively decarboxylated by recombinant firefly luciferase with concomitant conversion of ATP to AMP and generation of photons. The extended half-life eliminates the need to use reagent injectors and provides flexibility for continuous or batch mode processing of multiple plates. This cell proliferation assay can be used with various multiwell formats, e.g. 96 or 384 well format. Data can be recorded by luminometer or CCD camera imaging device. The luminescence output is presented as relative light units (RLU), measured over time.
(§4) The anti-proliferative effects of Formula I exemplary compounds were measured by the CellTiter-Glo® Assay (Example 902) against several tumor cell lines. Potency EC50 values were established for the tested compounds. The range of in vitro cell potency activities was about 100 nM to about 10 μM.
(§5) Efficacy of Formula I compounds was measured by a cell proliferation assay employing the following protocol (Promega Corp. Technical Bulletin TB288; Mendoza et al (2002) Cancer Res. 62:5485-5488):
(§6) 1. An aliquot of 100 μl of cell culture containing about 10^4 cells (PC3 (prostate cancer), Detroit562 (pharynx carcinoma), or MDAMB361.1 (breast cancer) in medium was deposited in each well of a 384-well, opaque-walled plate.
(§7) 2. Control wells were prepared containing medium and without cells.
(§8) 3. The compound was added to the experimental wells and incubated for 3-5 days.
(§9) 4. The plates were equilibrated to room temperature for approximately 30 minutes.
(§10) 5. A volume of CellTiter-Glo® Reagent equal to the volume of cell culture medium present in each well was added.
(§11) 6. The contents were mixed for 2 minutes on an orbital shaker to induce cell lysis.
(§12) 7. The plate was incubated at room temperature for 10 minutes to stabilize the luminescence signal.
(§13) 8. Luminescence was recorded and reported in graphs as RLU=relative luminescence units. […]

[2] = tested on: PC3 cells (prostate, PTEN mutation); test: In vitro cell proliferation assay (CellTiter-Glo), PC3; format: cell-based; conditions: Homo sapiens, PC-3; Cell line: PC3; Tissue type: prostate; Mutation Status: PTEN
Experimental: as §1, §2, §3, §4, §5, §6, §7, §8, §9, §10, §11, §12, §13

[3] = Brain protein binding in rats; format: in vitro ADME; conditions: rat, read-out: Brain protein binding (mean bound %) (converted)
Experimental: Brain protein binding in rats was measured for Formula I exemplary compounds, including the following: […]

Row | SMILES | EC50 [1] | EC50 [2] | fraction unbound [3]
1 | Nc1ncc(-c2nc3c(c(N4CCOCC4)n2)OCCO3)cn1 [Compound 101, 5-(4-morpholino-6,7-dihydro-[1,4]dioxino[2,3-d]pyrimidin-2-yl)pyrimidin-2-amine] | 1100 nM | 1000 nM | 0.285
2 | C[C@@H]1COc2nc(-c3cnc(N)nc3)nc(N3CCOCC3)c2O1 [Compound 102, 5-[(6R)-6-methyl-4-morpholino-6,7-dihydro-[1,4]dioxino[2,3-d]pyrimidin-2-yl]pyrimidin-2-amine] | 370 nM | 557 nM | 0.2
3 | CC1COc2c(nc(-c3cnc(N)nc3)nc2N2CCOCC2)O1 (centres unmarked) [Compound 103, 5-(7-methyl-4-morpholino-6,7-dihydro-[1,4]dioxino[2,3-d]pyrimidin-2-yl)pyrimidin-2-amine] | 630 nM | 606 nM | –
4 | CC1(C)COc2c(nc(-c3cnc(N)nc3)nc2N2CCOCC2)O1 [Compound 104, 5-(7,7-dimethyl-4-morpholino-6H-[1,4]dioxino[2,3-d]pyrimidin-2-yl)pyrimidin-2-amine] | 577 nM | 406 nM | –
5 | Nc1ncc(-c2nc3c(c(N4CCOCC4)n2)OCC(C(F)(F)F)O3)cn1 (centres unmarked) [Compound 105, 5-[4-morpholino-7-(trifluoromethyl)-6,7-dihydro-[1,4]dioxino[2,3-d]pyrimidin-2-yl]pyrimidin-2-amine] | 275 nM | 500 nM | 0.183
6 | Nc1ncc(-c2nc3c(c(N4CCOCC4)n2)OCC2(CC2)O3)cn1 [Compound 106, 5-(4-morpholinospiro[6H-[1,4]dioxino[2,3-d]pyrimidine-7,1′-cyclopropane]-2-yl)pyrimidin-2-amine] | 544 nM | 489 nM | 0.134
7 | Nc1ncc(-c2nc3c(c(N4CCOCC4)n2)OC(C2CC2)CO3)cn1 (centres unmarked) [Compound 107, 5-(6-cyclopropyl-4-morpholino-6,7-dihydro-[1,4]dioxino[2,3-d]pyrimidin-2-yl)pyrimidin-2-amine] | 961 nM | 1200 nM | –
8 | CC(C)(C)C1COc2c(nc(-c3cnc(N)nc3)nc2N2CCOCC2)O1 (centres unmarked) [Compound 108, 5-(7-tert-butyl-4-morpholino-6,7-dihydro-[1,4]dioxino[2,3-d]pyrimidin-2-yl)pyrimidin-2-amine] | 213 nM | 338 nM | –
9 | CC1(C)COc2c(nc(-c3cccc(O)c3)nc2N2CCOCC2)O1 [Compound 109, 3-(7,7-dimethyl-4-morpholino-6H-[1,4]dioxino[2,3-d]pyrimidin-2-yl)phenol] | 445 nM | 182 nM | –
10 | COc1ncc(-c2nc3c(c(N4CCOCC4)n2)OCC(C)(C)O3)cn1 [Compound 110, 2-(2-methoxypyrimidin-5-yl)-7,7-dimethyl-4-morpholino-6H-[1,4]dioxino[2,3-d]pyrimidine] | 4100 nM | 4800 nM | –
11 | CC1(C)COc2c(nc(-c3ccc(N)nc3)nc2N2CCOCC2)O1 [Compound 111, 5-(7,7-dimethyl-4-morpholino-6H-[1,4]dioxino[2,3-d]pyrimidin-2-yl)pyridin-2-amine] | 545 nM | 480 nM | –
12 | CC(=O)Nc1ccc(-c2nc3c(c(N4CCOCC4)n2)OCC(C)(C)O3)cc1 [Compound 112, N-[4-(7,7-dimethyl-4-morpholino-6H-[1,4]dioxino[2,3-d]pyrimidin-2-yl)phenyl]acetamide] | 1800 nM | 2100 nM | –
13 | CNc1ccc(-c2nc3c(c(N4CCOCC4)n2)OCC(C)(C)O3)cn1 [Compound 113, 5-(7,7-dimethyl-4-morpholino-6H-[1,4]dioxino[2,3-d]pyrimidin-2-yl)-N-methyl-pyridin-2-amine] | 2000 nM | 2100 nM | –
14 | CC1(C)COc2c(nc(-c3cccc(NS(C)(=O)=O)c3)nc2N2CCOCC2)O1 [Compound 114, N-[3-(7,7-dimethyl-4-morpholino-6H-[1,4]dioxino[2,3-d]pyrimidin-2-yl)phenyl]methanesulfonamide] | > 7500 nM | > 10000 nM | –
15 | CC1(C)COc2c(nc(-c3ccc4[nH]ccc4c3)nc2N2CCOCC2)O1 [Compound 115, 2-(1H-indol-5-yl)-7,7-dimethyl-4-morpholino-6H-[1,4]dioxino[2,3-d]pyrimidine] | 1800 nM | 2300 nM | –
16 | Nc1ncc(-c2nc3c(c(N4CCOCC4)n2)OCC(CF)O3)cn1 (centres unmarked) [Compound 116, 5-[7-(fluoromethyl)-4-morpholino-6,7-dihydro-[1,4]dioxino[2,3-d]pyrimidin-2-yl]pyrimidin-2-amine] | 730 nM | 760 nM | 0.17
17 | Nc1ncc(-c2nc3c(c(N4CCOCC4)n2)OCC(CO)O3)cn1 (centres unmarked) [Compound 117, [2-(2-aminopyrimidin-5-yl)-4-morpholino-6,7-dihydro-[1,4]dioxino[2,3-d]pyrimidin-7-yl]methanol] | 669 nM | 759 nM | –
18 | CN1CCOc2c1nc(-c1cnc(N)nc1)nc2N1CCOCC1 [Compound 119, 5-(8-methyl-4-morpholino-7,8-dihydro-6H-pyrimido[5,4-b][1,4]oxazin-2-yl)pyrimidin-2-amine] | 2600 nM | 3100 nM | –
19 | CN1C(=O)COc2c(N3CCOCC3)nc(-c3cnc(N)nc3)nc21 [Compound 120, 2-(2-aminopyrimidin-5-yl)-8-methyl-4-morpholino-6H-pyrimido[5,4-b][1,4]oxazin-7(8H)-one] | 570 nM | 589 nM | 0.16
